Values of other authors, collected in PubChem BioAssay AID1259409 (Chemical Carcinogenesis Research Information System (CCRIS), 2018).

System: rodent chemically induced tumor inhibition, incidence and multiplicity
Test: CCRIS tumor inhibitor studies

SMILES: CC(=O)Oc1ccccc1C(=O)O
- tumour outcome (control, treated, inhibition, significance) (Carcinogen: AZOXYMETHANE, 25843-45-2, Dose [Inhibitor]: 0, 250 PPM IN DIET FOR 34 WK BEGINNING 1 WK POST LAST CARCINOGEN DOSE (STUDY DURATION: 49 WK), Route [Inhibitor]: ORAL, Species: RAT, Strain/Sex: F344/MALE, Target Tissue: Type of Lesion: COLON: ADENOCARCINOMA, Dose [Carcinogen]: 12 MG/KG BW IN 0.9% SALINE TWICE, Promoter: CHOLIC ACID, 81-25-4): 26%, 19%, 27%, not significant
- tumour outcome (control, treated, inhibition, significance) (Carcinogen: AZOXYMETHANE, 25843-45-2, Dose [Inhibitor]: 0, 250 PPM IN DIET FOR 34 WK BEGINNING 1 WK POST LAST CARCINOGEN DOSE (STUDY DURATION: 49 WK), Route [Inhibitor]: ORAL, Species: RAT, Strain/Sex: F344/MALE, Target Tissue: Type of Lesion: COLON: ADENOMA, Dose [Carcinogen]: 12 MG/KG BW IN 0.9% SALINE TWICE, Promoter: CHOLIC ACID, 81-25-4): 81%, 77%, 5%, not significant
- tumour outcome (control, treated, inhibition, significance) (Carcinogen: AZOXYMETHANE, 25843-45-2, Dose [Inhibitor]: 0, 250 PPM IN DIET FOR 34 WK BEGINNING 1 WK POST LAST CARCINOGEN DOSE (STUDY DURATION: 49 WK), Route [Inhibitor]: ORAL, Species: RAT, Strain/Sex: F344/MALE, Target Tissue: Type of Lesion: SMALL INTESTINE: ADENOCARCINOMA, Dose [Carcinogen]: 12 MG/KG BW IN 0.9% SALINE TWICE, Promoter: CHOLIC ACID, 81-25-4): 23%, 23%, 0%, not significant
- tumour outcome (control, treated, inhibition, significance) (Carcinogen: AZOXYMETHANE, 25843-45-2, Dose [Inhibitor]: 0, 250 PPM IN DIET FOR 34 WK BEGINNING 1 WK POST LAST CARCINOGEN DOSE (STUDY DURATION: 49 WK), Route [Inhibitor]: ORAL, Species: RAT, Strain/Sex: F344/MALE, Target Tissue: Type of Lesion: SMALL INTESTINE: ADENOMA, Dose [Carcinogen]: 12 MG/KG BW IN 0.9% SALINE TWICE, Promoter: CHOLIC ACID, 81-25-4): 17%, 23%, -35%, not significant
- tumour outcome (control, treated, inhibition, significance) (Carcinogen: AZOXYMETHANE, 25843-45-2, Dose [Inhibitor]: 0, 400 PPM IN DIET BEGINNING 2 WK PRIOR TO CARCINOGEN TREATMENT AND CONTINUING FOR 52 WK (STUDY DURATION: 54 WK), Route [Inhibitor]: ORAL, Species: RAT, Strain/Sex: F344/MALE, Target Tissue: Type of Lesion: COLON: ADENOCARCINOMA, Dose [Carcinogen]: 15 MG/KG BW 1/WK FOR 2 WK, Promoter: NONE USED): 78%, 47%, 40%, p<0.01
- tumour outcome (control, treated, inhibition, significance) (Carcinogen: DIMETHYLHYDRAZINE HYDROCHLORIDE, 306-37-6, Dose [Inhibitor]: 0, 5 MG/KG 1/D 5D/WK BY GAVAGE AND SAME DOSE IN DIET 2 D/WK FOR 18 WK (STUDY DURATION: 18 WK), Route [Inhibitor]: GAVAGE, ORAL, Species: RAT, Strain/Sex: WISTAR/MALE, Target Tissue: Type of Lesion: COLON: TUMOR, Dose [Carcinogen]: 30 MG/KG/WK FOR 18 WK, Promoter: NONE USED): 100%, 100%, 0%, not significant
- tumour outcome (control, treated, inhibition, significance) (Carcinogen: DIMETHYLHYDRAZINE HYDROCHLORIDE, 306-37-6, Dose [Inhibitor]: 0, 30 MG/KG 1/D 5 D/WK BY GAVAGE AND THE SAME DOSE IN DIET 2 D/WK FOR 18 WK (STUDY DURATION: 18 WK), Route [Inhibitor]: GAVAGE, ORAL, Species: RAT, Strain/Sex: WISTAR/MALE, Target Tissue: Type of Lesion: COLON: TUMOR, Dose [Carcinogen]: 30 MG/KG/WK FOR 18 WK, Promoter: NONE USED): 100%, 50%, 50%, p<0.03
- tumour outcome (control, treated, inhibition, significance) (Carcinogen: DIMETHYLHYDRAZINE HYDROCHLORIDE, 306-37-6, Dose [Inhibitor]: 0, 60 MG/KG 1/D 5 D/WK BY GAVAGE AND THE SAME DOSE IN DIET 2 D/WK FOR 18 WK (STUDY DURATION: 18 WK), Route [Inhibitor]: GAVAGE, ORAL, Species: RAT, Strain/Sex: WISTAR/MALE, Target Tissue: Type of Lesion: COLON: TUMOR, Dose [Carcinogen]: 30 MG/KG/WK FOR 18 WK, Promoter: NONE USED): 100%, 25%, 75%, p<0.01
- tumour outcome (control, treated, inhibition, significance) (Carcinogen: N-BUTYL-(4-HYDROXYBUTYL)NITROSAMINE, 3817-11-6, Dose [Inhibitor]: 0, 1 G/KG IN DIET FROM WK 1 THROUGH WK 20 OF STUDY, Route [Inhibitor]: ORAL, Species: RAT, Strain/Sex: WISTAR/MALE, Target Tissue: Type of Lesion: BLADDER: TUMOR, Dose [Carcinogen]: 0.05% IN DRINKING WATER FROM WK 2 THROUGH WK 10 OF STUDY (STUDY DURATION: 32 WK), Promoter: NONE USED): 8/29 (28%), 1/29 (3%), 89%, p<0.05
- tumour outcome (control, treated, inhibition, significance) (Carcinogen: N-BUTYL-N-(4-HYDROXYBUTYL)NITROSAMINE, 3817-11-6, Dose [Inhibitor]: 0, 400 MG/KG DIET FOR 24 WK BEGINNING 1 WK PRIOR TO CARCINOGEN TREATMENT (STUDY DURATION: 24 WK), Route [Inhibitor]: ORAL, Species: MOUSE, Strain/Sex: BDF/MALE, Target Tissue: Type of Lesion: URINARY BLADDER: TRANSITIONAL CELL CARCINOMA, Dose [Carcinogen]: 7.5 MG 1/WK FOR 8 WK, Promoter: NONE USED): 22/75 (29%), 21/74 (28%), 3%, not significant
- tumour outcome (control, treated, inhibition, significance) (Carcinogen: N-BUTYL-N-(4-HYDROXYBUTYL)NITROSAMINE, 3817-11-6, Dose [Inhibitor]: 0, 800 MG/KG DIET FOR 24 WK BEGINNING 1 WK PRIOR TO CARCINOGEN TREATMENT (STUDY DURATION: 24 WK), Route [Inhibitor]: ORAL, Species: MOUSE, Strain/Sex: BDF/MALE, Target Tissue: Type of Lesion: URINARY BLADDER: TRANSITIONAL CELL CARCINOMA, Dose [Carcinogen]: 7.5 MG 1/WK FOR 8 WK, Promoter: NONE USED): 22/75 (29%), 22/73 (30%), -3%, not significant
- tumour outcome (control, treated, inhibition, significance) (Carcinogen: N-METHYL-N'-NITRO-N-NITROSOGUANIDINE, 70-25-7, Dose [Inhibitor]: FOLLOWING 8 WK CARCINOGEN/NACL REGIMEN, RATS FED DIETS SUPPLEMENTED WITH 1% ASPIRIN FOR 32 WK (STUDY DURATION: 40 WK), Route [Inhibitor]: ORAL, Species: RAT, Strain/Sex: WISTAR/MALE, Target Tissue: Type of Lesion: DUODENUM: ADENOCARCINOMA, Dose [Carcinogen]: 100 MG/L IN DRINKING WATER FOR 8 WK, AND SIMULTANEOUSLY FED DIET SUPPLEMENTED WITH 10% NACL, Promoter: SODIUM CHLORIDE, 7647-14-5): 3/39 (8%), 1/20 (5%), 38%, not significant
- tumour outcome (control, treated, inhibition, significance) (Carcinogen: N-METHYL-N'-NITRO-N-NITROSOGUANIDINE, 70-25-7, Dose [Inhibitor]: FOLLOWING 8 WK CARCINOGEN/NACL REGIMEN, RATS FED DIETS SUPPLEMENTED WITH 1% ASPIRIN FOR 32 WK (STUDY DURATION: 40 WK), Route [Inhibitor]: ORAL, Species: RAT, Strain/Sex: WISTAR/MALE, Target Tissue: Type of Lesion: GLANDULAR STOMACH: ADENOCARCINOMA, Dose [Carcinogen]: 100 MG/L IN DRINKING WATER FOR 8 WK, AND SIMULTANEOUSLY FED DIET SUPPLEMENTED WITH 10% NACL, Promoter: SODIUM CHLORIDE, 7647-14-5): 3/39 (8%), 0/20 (0%), 100% not significant
- tumour outcome (control, treated, inhibition, significance) (Carcinogen: N-METHYL-N'-NITRO-N-NITROSOGUANIDINE, 70-25-7, Dose [Inhibitor]: FOLLOWING 8 WK CARCINOGEN/NACL REGIMEN, RATS FED DIETS SUPPLEMENTED WITH 1% ASPIRIN FOR 32 WK (STUDY DURATION: 40 WK), Route [Inhibitor]: ORAL, Species: RAT, Strain/Sex: WISTAR/MALE, Target Tissue: Type of Lesion: GLANDULAR STOMACH: PRENEOPLASTIC HYPERPLASIA, Dose [Carcinogen]: 100 MG/L IN DRINKING WATER FOR 8 WK, AND SIMULTANEOUSLY FED DIET SUPPLEMENTED WITH 10% NACL, Promoter: SODIUM CHLORIDE, 7647-14-5): 5/39 (13%), 2/20 (10%), 23%, not significant
- tumour outcome (control, treated, inhibition, significance) (Carcinogen: N-NITROSOBIS(2-OXOPROPYL)AMINE, 60599-38-4, Dose [Inhibitor]: 0, 1% IN DIET FOR 27 WK BEGINNING POST LAST CARCINOGEN DOSE (STUDY DURATION: 32 WK), Route [Inhibitor]: ORAL, Species: HAMSTER, Strain/Sex: SYRIAN/FEMALE, Target Tissue: Type of Lesion: PANCREAS: ADENOCARCINOMA, Dose [Carcinogen]: 10 MG/KG 1/WK FOR 5 WK, Promoter: NONE USED): 20/28 (71%), 10/19 (53%), 25%, not calculated
- tumour outcome (control, treated, inhibition, significance) (Carcinogen: N-NITROSODIETHYLAMINE, 55-18-5, 2-ACETYLAMINOFLUORENE, 53-93-6, CARBON TETRACHLORIDE, 56-23-5, Carcinogen: N-NITROSODIETHYLAMINE, 55-18-5, 2-ACETYLAMINOFLUORENE, 53-93-6, CARBON TETRACHLORIDE, 56-23-5, Dose [Inhibitor]: 0, 0.75% IN DIET FOR 29 WK ADMINISTERED TO RATS BEARING PERSISTENT NODULES FOLLOWING CARCINOGEN TREATMENT (STUDY DURATIO, Route [Inhibitor]: ORAL, Species: RAT, Strain/Sex: F344/MALE, Target Tissue: Type of Lesion: LIVER: HEPATOCELLULAR CARCINOMA, Dose [Carcinogen]: 200 MG/KG BW DEN ONCE, 0.002% 2-AAF IN DIET FOR 2 WK, 1 MG/KG BW CCL4 MIDWAY IN 2-AAF TREATMENT, Dose [Carcinogen]: 200 MG/KG BW DEN ONCE, 0.002% 2-AAF IN DIET FOR 2 WK, 1 MG/KG BW CCL4 MIDWAY IN 2-AAF TREATMENT, Promoter: NONE USED): 7/8 (88%), 5/13 (38%), 57%, not significant
- tumour outcome (control, treated, inhibition, significance) (Carcinogen: N-NITROSODIETHYLAMINE, 55-18-5, 2-ACETYLAMINOFLUORENE, 53-93-6, CARBON TETRACHLORIDE, 56-23-5, Carcinogen: N-NITROSODIETHYLAMINE, 55-18-5, 2-ACETYLAMINOFLUORENE, 53-93-6, CARBON TETRACHLORIDE, 56-23-5, Dose [Inhibitor]: 0, 0.75% IN DIET FOR 29 WK ADMINISTERED TO RATS BEARING PERSISTENT NODULES FOLLOWING CARCINOGEN TREATMENT (STUDY DURATIO, Route [Inhibitor]: ORAL, Species: RAT, Strain/Sex: F344/MALE, Target Tissue: Type of Lesion: LIVER: HEPATOCELLULAR CARCINOMA, Dose [Carcinogen]: 200 MG/KG BW DEN ONCE, 0.002% 2-AAF IN DIET FOR 2 WK, 1 ML/KG BW CCL4 MIDWAY IN 2-AAF TREATMENT, Dose [Carcinogen]: 200 MG/KG BW DEN ONCE, 0.002% 2-AAF IN DIET FOR 2 WK, 1 ML/KG BW CCL4 MIDWAY IN 2-AAF TREATMENT, Promoter: PHENOBARBITAL, 50-06-6): 12/12 (100%), 12/14 (86%), 14%, not significant
- tumour outcome (control, treated, inhibition, significance) (Carcinogen: N-[4-(5-NITRO-2-FURYL)-2-THIAZOLYL]FORMAMIDE, 24554-26-5, Dose [Inhibitor]: 0.5% IN DIET FOR 2 D PRIOR TO AND FOR 7 D AFTER CARCINOGEN ADMINISTRATION (13 WK TOTAL) FOLLOWED BY 56 WK ON CONTROL DIE, Route [Inhibitor]: ORAL, Species: RAT, Strain/Sex: FISCHER/MALE, Target Tissue: Type of Lesion: URINARY BLADDER: CARCINOMA, Dose [Carcinogen]: 0.2% IN DIET SIMULTANEOUSLY WITH INHIBITOR FOR 12 WK, Promoter: NONE USED): 18/21 (86%), 10/27 (37%), 57%, p<0.001
